“Also recorded” adds a separate entry of the source.
System: tropical house mosquito Culex quinquefasciatus (adults, 3 days old)
Assay: Efficacy of formulations on surfaces (glazed/unglazed tiles, plywood), ten 3 day old mosquitoes, 3 min exposure
Type: in vivo
Settings: for efficacy enhancement of the insecticide by the additive (summary in words): Culex quinquefasciatus, 3 min exposure, mostly 0.1% bendiocarb + 1% additive on glazed tiles
Experimental: The ingredients were diluted in acetone to give a concentration which corresponds to the desired quantity of a.i./m^2. A 1 ml quantity of the solution was applied by pipette onto the 15 cm×15 cm surfaces without treating the outer edge of 1 cm.
(§1) Ten 3 day old Culex quinquefasciatus mosquitoes were exposed to each treatment for 3 minutes under a perforated petri dish, and then a clean untreated white paper index card was moved between treated surface and petri dish. A water-soaked cotton pad was applied immediately after.
Each test consisted of three replicates (three batches of ten mosquitoes were exposed for three minutes to the same surface, each one hour later), of which the mean values are calculated.
The test insects were Culex quinquefasciatus (adults, 3 days old). The compositions were evaluated for their ability to provide effective knock down after 3, 9, 15, and 30 minutes, 1, 2, 3, 4 and 24 hours (mortality). The experiments were performed in triplicate on glazed tile, but not repeated on wood.
Test Insects are Culex quinquefasciatus (adults, 3 days old). The Application provides the technical compounds were dissolved in acetone and applied as 1 ml solutions onto glazed tiles (15 cm×15 cm). An evaluation is provided at knock down after 3, 9, 15, and 30 minutes, 1, 2, 3, 4 and 24 hours (mortality). There are 3 replicates.
Test Insects: Culex quinquefasciatus (adults, 3 days old)
Application: The technical compounds were dissolved in acetone and applied as 1 ml solutions onto glazed tiles (15 cm×15 cm).
Evaluation: Knock down after 3, 9, 15, and 30 minutes, 1, 2, 3, 4 and 24 hours (mortality) […]
Application: The active ingredients were applied as 1 ml acetone solutions onto glazed tiles (15 cm×15 cm) […]
as §1, with “For the mosquitoes, the USDA Petri Dish Method is used. Ten” for “Ten”, “are” for “were”, “dish” for “dish,”, “is” for “was”, “after. […]” for “after.”

[1] = 3′, in acetone on glazed tiles, Table 84
[2] = 9′, in acetone on glazed tiles, Table 84
[3] = 15′, in acetone on glazed tiles, Table 84
[4] = 30′, in acetone on glazed tiles, Table 84
[5] = 1 h, in acetone on glazed tiles, Table 84
[6] = 2 h, in acetone on glazed tiles, Table 84
[7] = 3 h, in acetone on glazed tiles, Table 84
[8] = 4 h, in acetone on glazed tiles, Table 84
[9] = 24 h (mortality), in acetone on glazed tiles, Table 84

O=C1O[C@H]([C@@H](O)CO)C(O)=C1O [ascorbic acid]
efficacy enhancement of the insecticide by the additive (summary in words) (details as worded): complete decrease of efficacy

CC1(C)CC(OC(=O)CCCCCCCCC(=O)OC2CC(C)(C)NC(C)(C)C2)CC(C)(C)N1
% KD and Mortality [1]: 0% | % KD and Mortality [2]: 0% | % KD and Mortality [3]: 0% | % KD and Mortality [4]: 0% | % KD and Mortality [5]: 3% | % KD and Mortality [6]: 0% | % KD and Mortality [7]: 3% | % KD and Mortality [8]: 3% | % KD and Mortality [9]: 17%

CNC(=O)Oc1cccc2c1OC(C)(C)O2 [0.1% bendiocarb]
% KD and Mortality [1]: 0% | % KD and Mortality (3′, solvent 2006-009114 (EC formulation), glazed tiles, Table 83): 10% | % KD and Mortality (3′, solvent Acetone + 0.05% citric acid, glazed tiles, Table 83): 13% | % KD and Mortality (3′, solvent Acetone, glazed tiles, Table 83): 3% | % KD and Mortality (3′, solvent Ethylacetate, glazed tiles, Table 83): 0% | % KD and Mortality (3′, solvent Methanol, glazed tiles, Table 83): 0% | % KD and Mortality [2]: 0% | % KD and Mortality (9′, solvent 2006-009114 (EC formulation), glazed tiles, Table 83): 17% | % KD and Mortality (9′, solvent Acetone + 0.05% citric acid, glazed tiles, Table 83): 33% | % KD and Mortality (9′, solvent Acetone, glazed tiles, Table 83): 3% | % KD and Mortality (9′, solvent Ethylacetate, glazed tiles, Table 83): 3% | % KD and Mortality (9′, solvent Methanol, glazed tiles, Table 83): 0% | % KD and Mortality [3]: 3% | % KD and Mortality (15′, solvent 2006-009114 (EC formulation), glazed tiles, Table 83): 23% | % KD and Mortality (15′, solvent Acetone + 0.05% citric acid, glazed tiles, Table 83): 70% | % KD and Mortality (15′, solvent Acetone, glazed tiles, Table 83): 3% | % KD and Mortality (15′, solvent Ethylacetate, glazed tiles, Table 83): 7% | % KD and Mortality (15′, solvent Methanol, glazed tiles, Table 83): 0% | % KD and Mortality [4]: 17% | % KD and Mortality (30′, solvent 2006-009114 (EC formulation), glazed tiles, Table 83): 27% | % KD and Mortality (30′, solvent Acetone + 0.05% citric acid, glazed tiles, Table 83): 97% | % KD and Mortality (30′, solvent Acetone, glazed tiles, Table 83): 13% | % KD and Mortality (30′, solvent Ethylacetate, glazed tiles, Table 83): 27% | % KD and Mortality (30′, solvent Methanol, glazed tiles, Table 83): 13% | % KD and Mortality [5]: 50% | % KD and Mortality (1 h, solvent 2006-009114 (EC formulation), glazed tiles, Table 83): 43% | % KD and Mortality (1 h, solvent Acetone + 0.05% citric acid, glazed tiles, Table 83): 97% | % KD and Mortality (1 h, solvent Acetone, glazed tiles, Table 83): 77% | % KD and Mortality (1 h, solvent Ethylacetate, glazed tiles, Table 83): 50% | % KD and Mortality (1 h, solvent Methanol, glazed tiles, Table 83): 57% | % KD and Mortality [6]: 73% | % KD and Mortality (2 h, solvent 2006-009114 (EC formulation), glazed tiles, Table 83): 87% | % KD and Mortality (2 h, solvent Acetone + 0.05% citric acid, glazed tiles, Table 83): 97% | % KD and Mortality (2 h, solvent Acetone, glazed tiles, Table 83): 100% | % KD and Mortality (2 h, solvent Ethylacetate, glazed tiles, Table 83): 73% | % KD and Mortality (2 h, solvent Methanol, glazed tiles, Table 83): 73% | % KD and Mortality [7]: 80% | % KD and Mortality (3 h, solvent 2006-009114 (EC formulation), glazed tiles, Table 83): 93% | % KD and Mortality (3 h, solvent Acetone + 0.05% citric acid, glazed tiles, Table 83): 100% | % KD and Mortality (3 h, solvent Acetone, glazed tiles, Table 83): 100% | % KD and Mortality (3 h, solvent Ethylacetate, glazed tiles, Table 83): 70% | % KD and Mortality (3 h, solvent Methanol, glazed tiles, Table 83): 73% | % KD and Mortality [8]: 90% | % KD and Mortality (4 h, solvent 2006-009114 (EC formulation), glazed tiles, Table 83): 97% | % KD and Mortality (4 h, solvent Acetone + 0.05% citric acid, glazed tiles, Table 83): 100% | % KD and Mortality (4 h, solvent Acetone, glazed tiles, Table 83): 100% | % KD and Mortality (4 h, solvent Ethylacetate, glazed tiles, Table 83): 80% | % KD and Mortality (4 h, solvent Methanol, glazed tiles, Table 83): 73% | % KD and Mortality [9]: 100% | % KD and Mortality (24 h (mortality), solvent 2006-009114 (EC formulation), glazed tiles, Table 83): 97% | % KD and Mortality (24 h (mortality), solvent Acetone + 0.05% citric acid, glazed tiles, Table 83): 100% | % KD and Mortality (24 h (mortality), solvent Acetone, glazed tiles, Table 83): 100% | % KD and Mortality (24 h (mortality), solvent Ethylacetate, glazed tiles, Table 83): 80% | % KD and Mortality (24 h (mortality), solvent Methanol, glazed tiles, Table 83): 87%

COC(=O)CCCCCCCCC(=O)OC [1% Dimethyl sebacate]
% KD and Mortality [1]: 0% | % KD and Mortality [2]: 0% | % KD and Mortality [3]: 0% | % KD and Mortality [4]: 0% | % KD and Mortality [5]: 0% | % KD and Mortality [6]: 0% | % KD and Mortality [7]: 0% | % KD and Mortality [8]: 0% | % KD and Mortality [9]: 0%

CC1(C)CC(O)CC(C)(C)N1[O] [Derivative 9, 4-Hydroxy-2,2,6,6 tetramethylpiperidin-1-oxyl]
efficacy enhancement of the insecticide by the additive (summary in words): acted weaker in both tests | efficacy enhancement of the insecticide by the additive (summary in words) (listed as 4-Hydroxy-2,2,6,6 tetramethylpiperidin-1-oxyl (free radical)): inhibited the efficacy of bendiocarb

CN1C(C)(C)CC(O)CC1(C)C [Derivative 8, 1,2,2,6,6-Pentamethyl-4-piperidinol]
efficacy enhancement of the insecticide by the additive (summary in words) (details as worded): acted weaker in both tests | efficacy enhancement of the insecticide by the additive (summary in words) (details as worded, listed as 1,2,2,6,6-Pentamethyl-4-piperidinol): no efficacy enhancement

CC1(C)CC(OC(=O)CCCCCCCCC(=O)OC2CC(C)(C)NC(C)(C)C2)CC(C)(C)N1 [Derivative 6, Bis(2,2,6,6-tetramethyl-4-piperidyl)sebacate]
efficacy enhancement of the insecticide by the additive (summary in words) (details as worded): inhibited the efficacy of bendiocarb in both tests | efficacy enhancement of the insecticide by the additive (summary in words) (details as worded, listed as bis(2,2,6,6-tetramethyl-4-piperidyl)sebacate): inhibited the efficacy of bendiocarb

O=C(CCCCCCCCC(=O)ON1C(=O)CCC1=O)ON1C(=O)CCC1=O
% KD and Mortality [1]: 0% | % KD and Mortality [2]: 0% | % KD and Mortality [3]: 0% | % KD and Mortality [4]: 0% | % KD and Mortality [5]: 0% | % KD and Mortality [6]: 0% | % KD and Mortality [7]: 0% | % KD and Mortality [8]: 0% | % KD and Mortality [9]: 0%

O=C(O)CC(O)(CC(=O)O)C(=O)O [citric acid]
efficacy enhancement of the insecticide by the additive (summary in words) (details as worded): better efficacy of bendiocarb alone

O=C(CCCCCCCCC(=O)OCc1ccccc1)OCc1ccccc1 [1% Sebacic acid dibenzyl ester]
% KD and Mortality [1]: 0% | % KD and Mortality [2]: 0% | % KD and Mortality [3]: 0% | % KD and Mortality [4]: 0% | % KD and Mortality [5]: 0% | % KD and Mortality [6]: 0% | % KD and Mortality [7]: 3% | % KD and Mortality [8]: 3% | % KD and Mortality [9]: 7%

O=C(CCCCCCCCC(=O)OCc1ccccc1)OCc1ccccc1 [Derivative 3, Sebacic acid dibenzyl ester]
efficacy enhancement of the insecticide by the additive (summary in words) (details as worded): superior to Compound A (first test) or equal (second test) | efficacy enhancement of the insecticide by the additive (summary in words) (details as worded, listed as Sebacic acid dibenzyl ester): superior to Compound A; also recorded: improved markedly the efficacy of bendiocarb

O=C(CCCCCCCCC(=O)ON1C(=O)CCC1=O)ON1C(=O)CCC1=O [Derivative 4, Sebacic acid-bis-(N-succinimidyl)ester]
efficacy enhancement of the insecticide by the additive (summary in words) (details as worded): weaker as Compound A in both tests | efficacy enhancement of the insecticide by the additive (summary in words) (details as worded, listed as Sebacic acid-bis-(N-succinimidyl)ester): equivalent to Compound A

CC1(C)CC(O)CC(C)(C)N1[O]
% KD and Mortality [1]: 0% | % KD and Mortality [2]: 0% | % KD and Mortality [3]: 0% | % KD and Mortality [4]: 0% | % KD and Mortality [5]: 0% | % KD and Mortality [6]: 0% | % KD and Mortality [7]: 0% | % KD and Mortality [8]: 0% | % KD and Mortality [9]: 7%

COC(=O)CCCCCCCCC(=O)OC [Derivative 1, Dimethyl sebacate]
efficacy enhancement of the insecticide by the additive (summary in words) (details as worded): acted weaker in both tests | efficacy enhancement of the insecticide by the additive (summary in words) (details as worded, listed as Dimethyl sebacate): no efficacy enhancement

Reference: patent US9028856B2, “Synergistic pesticide compositions” (priority 2008, dated 2015)
